Values after ≈ are worked out from the molar mass of the structure shown. Structures can show the parent of a compound that is named as a salt. Where two headings read alike, the source gives them in different places.
How the values were obtained:
[1] = test system: Influenza A/WSN/33 (H1N1); experiment: microbe, parasite or virus in culture; type: cell-based, Influenza A virus; settings: for EC50: read-out: H1N1 WSN EC50
[2] = test system: influenza virus (H3N2); experiment: organism not typed; type: cell-based, Influenza A virus; settings: for EC50: read-out: H3N2 EC50
[3] = test system: influenza virus (H1N1); experiment: organism not typed; type: cell-based, Influenza A virus
[4] = test system: MDCK cells
[5] = test system: H1N1 WSN viral strain; design: species or system BALB/c mice; settings: mouse, in vivo, po

With `COc1c(C)c2c(c(O)c1C/C=C(\C)CCC(=O)OCCN1CCOCC1)C(=O)OC2` [MPM, 2-morpholinoethyl(E)-6-(1,3-dihydro-4-hydroxy-6-methoxy-7-methyl-3-oxo-5-isobenzofuranyl)-4-methyl-4-hexenoate] the “antiviral activity against WSN influenza virus” value [1] was “active”, the “cell survival (MTT), D + V” value [1] was “++++ (key: 0˜25% cell survival is recorded as +/−; 25˜50% cell survival is recorded as +; 50˜75% cell survival is recorded as ++; 75˜100% cell survival is recorded as +++; >100% cell survival is recorded as ++++)” and the EC50 ([1]; Influenza A virus) was 0.098 µg/mL (≈ 0.226 µM). It also gave an MIC ([1]; Influenza A virus, read-out: Minimal Inhibitory Concentration (MIC), WSN) of 0.097 µg/mL (≈ 0.224 µM), an EC50 [2] of 1.56 µg/mL (≈ 3.6 µM) and an MIC ([2]; read-out: Minimal Inhibitory Concentration (MIC), H3N2) of 1.56 µg/mL (≈ 3.6 µM). For the same compound, the “survival rate in MDCK cells” value [3] was 75%, the MIC ([3]; read-out: Minimal Inhibitory Concentration (MIC), H1N1) was 0.195 µg/mL (≈ 0.45 µM) and the toxicity to cells [4] was “nontoxic to cells”.
`COc1c(C)c2c(c(O)c1C/C=C(\C)CCC(=O)OCCN1CCOCC1)C(=O)OC2` [MPM-N, mycophenolate mofetil hydrochloride] was tested, and the “Minimal Inhibitory Concentration (MIC), WSN” value ([1]; hydrochloride) was 0.0488 µg/mL and the “survival rate of mice” value [5] was 23.3%.
With `NC(=O)c1ncn([C@@H]2O[C@H](CO)[C@@H](O)[C@H]2O)n1` [Ribavirin, reference compound] the EC50 ([1]; Influenza A virus) was 3.12 µg/mL (≈ 12.8 µM) and the EC50 [2] was 12.5 µg/mL (≈ 51.2 µM).
With `CCOC(=O)C1=C[C@@H](OC(CC)CC)[C@H](NC(C)=O)[C@@H](N)C1` [Tamiflu] the “survival rate of mice” value [5] was 100% and the “survival rate of mice” value ([5]; 0.1 mg/kg) was 46.7%.

Source: patent US10221152B2 (priority 2013, dated 2019)
